In patent publication EP4707277A1, “NOVEL HETEROCYCLIC AMINE DERIVATIVES AND PHARMACEUTICAL COMPOSITION COMPRISING SAME” (Daewoong Pharmaceutical Co., Ltd., priority 2023, dated 2024):
Like-named read-outs stand apart in the source and are kept apart here.

Legend:
BTK = biological target: T1, BTK (Homo sapiens, UniProt Q06187); assay: Inhibitory activity against BTK, ADP-Glo Kinase system (Promega); type: biochemical
T1 construct: purchased Signalchem B10-10H
Summary of the method: (§1)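 IC50 values were fitted from kinase reactions run for 1 h at 30°C with either 1 mM ATP or ATP at Km (10 µM for BTK, 25 µM for ITK). Reactions used 0.2 µg/µl poly(Glu4,Tyr1), recombinant human enzyme (BTK 10 ng, ITK 4 ng per reaction) in Tris pH 7.5 Mn/Mg buffer with 1% DMSO. ADP formed was read by ADP-Glo luminescence.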

ITK = biological target: T2, ITK (Homo sapiens, UniProt Q08881); assay: Inhibitory activity against ITK, ADP-Glo Kinase system (Promega); type: biochemical
T2 construct: purchased Signalchem I13-11G-10
T2 sequence (Q08881 1-620): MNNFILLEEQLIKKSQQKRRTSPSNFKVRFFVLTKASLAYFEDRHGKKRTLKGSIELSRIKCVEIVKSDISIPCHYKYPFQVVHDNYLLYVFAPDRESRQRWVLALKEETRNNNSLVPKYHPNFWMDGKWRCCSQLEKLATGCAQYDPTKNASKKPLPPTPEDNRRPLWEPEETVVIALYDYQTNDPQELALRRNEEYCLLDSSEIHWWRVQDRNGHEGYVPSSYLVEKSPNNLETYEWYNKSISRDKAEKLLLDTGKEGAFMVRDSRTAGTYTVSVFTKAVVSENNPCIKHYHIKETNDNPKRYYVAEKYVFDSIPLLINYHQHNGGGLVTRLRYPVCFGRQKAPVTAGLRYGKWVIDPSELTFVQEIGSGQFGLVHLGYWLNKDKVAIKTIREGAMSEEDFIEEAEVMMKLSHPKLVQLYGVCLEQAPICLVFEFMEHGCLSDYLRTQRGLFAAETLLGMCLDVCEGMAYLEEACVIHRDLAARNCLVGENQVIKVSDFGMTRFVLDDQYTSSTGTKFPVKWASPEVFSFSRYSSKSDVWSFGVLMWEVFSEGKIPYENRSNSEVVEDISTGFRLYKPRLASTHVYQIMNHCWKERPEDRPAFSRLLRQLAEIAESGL
Summary of the method: as §1

[1] = 1mM ATP, read-out: BTK IC50(nM) 1mM ATP
[2] = 1mM ATP, read-out: ITK IC50(nM) 1mM ATP
[3] = Km ATP (BTK: 10 uM), read-out: BTK IC50(nM) Km ATP
[4] = Km ATP (ITK: 25uM), read-out: ITK IC50(nM) Km ATP

T1 sequence (Q06187 whole entry): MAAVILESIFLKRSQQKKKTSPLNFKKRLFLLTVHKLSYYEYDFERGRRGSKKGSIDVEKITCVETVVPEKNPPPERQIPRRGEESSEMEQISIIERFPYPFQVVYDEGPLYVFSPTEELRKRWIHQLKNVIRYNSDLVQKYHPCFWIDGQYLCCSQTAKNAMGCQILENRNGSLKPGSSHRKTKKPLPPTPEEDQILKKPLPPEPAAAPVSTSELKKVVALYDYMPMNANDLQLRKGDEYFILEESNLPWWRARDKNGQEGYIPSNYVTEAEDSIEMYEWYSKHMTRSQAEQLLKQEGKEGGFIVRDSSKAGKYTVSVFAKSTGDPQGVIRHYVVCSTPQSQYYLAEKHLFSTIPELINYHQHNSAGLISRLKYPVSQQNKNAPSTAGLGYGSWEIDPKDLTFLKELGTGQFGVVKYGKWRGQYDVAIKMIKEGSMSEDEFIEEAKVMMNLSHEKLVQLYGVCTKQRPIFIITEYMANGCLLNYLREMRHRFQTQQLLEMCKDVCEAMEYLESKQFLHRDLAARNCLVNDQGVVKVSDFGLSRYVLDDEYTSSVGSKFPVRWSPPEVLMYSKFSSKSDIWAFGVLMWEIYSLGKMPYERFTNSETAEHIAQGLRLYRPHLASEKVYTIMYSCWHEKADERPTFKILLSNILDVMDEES

IC50 (BTK; [1]) [nM] | IC50 (ITK; [2]) [nM] | IC50 (BTK; [3]) [nM] | IC50 (ITK; [4]) [nM] | SMILES
> 500 | > 500 |  |  | CC#CC(=O)N1C[C@H](F)[C@H](Oc2nc(Nc3ncc(C)s3)cc3c2ccn3CC(C)C)C1 [Example 230, 1-((3S,4R)-3-fluoro-4-((1-isobutyl-6-((5-methylthiazol-2-yl)amino)-1H-pyrrolo[3,2-c]pyridin-4-yl)oxy)pyrrolidin-1-yl)but-2-yn-1-one]
≤ 20 | ≤ 20 |  |  | C=CC(=O)N1C[C@@H](F)[C@H](Oc2nc(Nc3ncc(C)s3)cc3c2ccn3CC(C)CC)C1 (stereo partly drawn) [Example 173, 1-((3R,4R)-3-fluoro-4-((1-(2-methylbutyl)-6-((5-methylthiazol-2-yl)amino)-1H-pyrrolo[3,2-c]pyridin-4-yl)oxy)pyrrolidin-1-yl)prop-2-en-1-one]
≤ 20 | 20 to 100 |  |  | C=CC(=O)N1CC=C(c2nc(Nc3ncc(C)s3)cc3c2ccn3[C@H](C)C(F)(F)F)CC1 [Example 24, (R)-1-(4-(6-((5-methylthiazol-2-yl)amino)-1-(1,1,1-trifluoropropan-2-yl)-1H-pyrrolo[3,2-c]pyridin-4-yl)-3,6-dihydropyridin-1(2H)-yl)prop-2-en-1-one]
 |  | ≤ 20 | ≤ 20 | C=CC(=O)Nc1ccc(F)c(-c2nc(Nc3ncc(C)s3)cc3c2ccn3CC2CC2)c1 [Example 61, N-(3-(1-(cyclopropylmethyl)-6-((5-methylthiazol-2-yl)amino)-1H-pyrrolo[3,2-c]pyridin-4-yl)-4-fluorophenyl)acrylamide]
≤ 20 | ≤ 20 |  |  | C=CC(=O)N1CC(C)(Oc2nc(Nc3ncc(C)s3)cc3c2ccn3CCC(C)C)C1 [Example 177, 1-(3-((1-isopentyl-6-((5-methylthiazol-2-yl)amino)-1H-pyrrolo[3,2-c]pyridin-4-yl)oxy)-3-methylazetidin-1-yl)prop-2-en-1-one]
100 to 500 | 100 to 500 |  |  | C=CC(=O)N1CCC2(CC(Oc3nc(Nc4ncc(C)s4)cc4c3ccn4CC(C)C)C2)C1 (stereo not drawn) [Example 202, 1-(2-((1-isobutyl-6-((5-methylthiazol-2-yl)amino)-1H-pyrrolo[3,2-c]pyridin-4-yl)oxy)-6-azaspiro[3.4]octan-6-yl)prop-2-en-1-one]
 |  | ≤ 20 | ≤ 20 | C=CC(=O)N1CC=C(c2nc(Nc3ncc(C)s3)cc3c2ccn3CC2(C(F)(F)F)CC2)CC1 [Example 17, 1-(4-(6-((5-methylthiazol-2-yl)amino)-1-((1-(trifluoromethyl)cyclopropyl)methyl)-1H-pyrrolo[3,2-c]pyridin-4-yl)-3,6-dihydropyridin-1(2H)-yl)prop-2-en-1-one]
≤ 20 | ≤ 20 |  |  | C=CC(=O)N1C[C@H](F)[C@H](Oc2nc(Nc3ncc(C)s3)cc3c2ccn3C(C)C)C1 [Example 83, 1-((3S,4R)-3-fluoro-4-((1-isopropyl-6-((5-methylthiazol-2-yl)amino)-1H-pyrrolo[3,2-c]pyridin-4-yl)oxy)pyrrolidin-1-yl)prop-2-en-1-one]
≤ 20 | 20 to 100 |  |  | C=CC(=O)N1CCCC1COc1nc(Nc2ncc(C)s2)cc2c1ccn2C1CCCC1 (stereo not drawn) [Example 217, 1-(2-(((1-cyclopentyl-6-((5-methylthiazol-2-yl)amino)-1H-pyrrolo[3,2-c]pyridin-4-yl)oxy)methyl)pyrrolidin-1-yl)prop-2-en-1-one]
≤ 20 | 20 to 100 |  |  | C=CC(=O)Nc1ccc(F)c(-c2nc(Nc3ncc(C)s3)cc3c2ccn3CC(F)(F)F)c1 [Example 78, N-(4-fluoro-3-(6-((5-methylthiazol-2-yl)amino)-1-(2,2,2-trifluoroethyl)-1H-pyrrolo[3,2-c]pyridin-4-yl)phenyl)acrylamide]
≤ 20 | ≤ 20 |  |  | C=CC(=O)N1C2C=C(c3nc(Nc4ncc(C)s4)cc4c3ccn4CC(C)C)CC1CCC2 (stereo not drawn) [Example 38, 1-(3-(1-isobutyl-6-((5-methylthiazol-2-yl)amino)-1H-pyrrolo[3,2-c]pyridin-4-yl)-9-azabicyclo[3.3.1]non-2-en-9-yl)prop-2-en-1-one]
 |  | ≤ 20 | ≤ 20 | C=CC(=O)N1CC=C(c2nc(Nc3ncc(C)s3)cc3c2ccn3CC2CCC2)CC1 [Example 7, 1-(4-(1-(cyclobutylmethyl)-6-((5-methylthiazol-2-yl)amino)-1H-pyrrolo[3,2-c]pyridin-4-yl)-3,6-dihydropyridin-1(2H)-yl)prop-2-en-1-one]
≤ 20 | ≤ 20 |  |  | C=CC(=O)N1CC[C@H](Oc2nc(Nc3ncc(C)s3)cc3c2ccn3CC2CCCC2)C1 [Example 128, (S)-1-(3-((1-(cyclopentylmethyl)-6-((5-methylthiazol-2-yl)amino)-1H-pyrrolo[3,2-c]pyridin-4-yl)oxy)pyrrolidin-1-yl)prop-2-en-1-one]
≤ 20 | ≤ 20 |  |  | C=CC(=O)N1C[C@@H](F)[C@H](Oc2nc(Nc3ncc(C)s3)cc3c2ccn3C[C@H](C)CC)C1 [Example 174, 1-((3R,4R)-3-fluoro-4-((1-((R)-2-methylbutyl)-6-((5-methylthiazol-2-yl)amino)-1H-pyrrolo[3,2-c]pyridin-4-yl)oxy)pyrrolidin-1-yl)prop-2-en-1-one]
20 to 100 | 100 to 500 | ≤ 20 | 20 to 100 | C=CC(=O)Nc1ccc(F)c(-c2nc(Nc3ncc(C)s3)cc3c2ccn3CC(C)C)c1 [Example 63, N-(4-fluoro-3-(1-isobutyl-6-((5-methylthiazol-2-yl)amino)-1H-pyrrolo[3,2-c]pyridin-4-yl)phenyl)acrylamide]
≤ 20 | ≤ 20 |  |  | C=CC(=O)N1C[C@@H](Oc2nc(Nc3ncc(C)s3)cc3c2ccn3CC(C)C)C[C@@H]1C [Example 179, 1-((2S,4S)-4-((1-isobutyl-6-((5-methylthiazol-2-yl)amino)-1H-pyrrolo[3,2-c]pyridin-4-yl)oxy)-2-methylpyrrolidin-1-yl)prop-2-en-1-one]
≤ 20 | ≤ 20 |  |  | C=CC(=O)N1C[C@@H](F)[C@H](Oc2nc(Nc3ncc(C)s3)cc3c2ccn3CC2CCCC2)C1 [Example 170, 1-((3R,4R)-3-((1-(cyclopentylmethyl)-6-((5-methylthiazol-2-yl)amino)-1H-pyrrolo[3,2-c]pyridin-4-yl)oxy)-4-fluoropyrrolidin-1-yl)prop-2-en-1-one]
≤ 20 | ≤ 20 |  |  | C=CC(=O)N1C[C@@H](Oc2nc(Nc3ncc(C)s3)cc3c2ccn3CCC)C[C@@H]1C [Example 187, 1-((2S,4S)-2-methyl-4-((6-((5-methylthiazol-2-yl)amino)-1-propyl-1H-pyrrolo[3,2-c]pyridin-4-yl)oxy)pyrrolidin-1-yl)prop-2-en-1-one]
≤ 20 | ≤ 20 |  |  | C=CC(=O)N1CC(C)(Oc2nc(Nc3ncc(C)s3)cc3c2ccn3CCC)C1 [Example 176, 1-(3-methyl-3-((6-((5-methylthiazol-2-yl)amino)-1-propyl-1H-pyrrolo[3,2-c]pyridin-4-yl)oxy)azetidin-1-yl)prop-2-en-1-one]
≤ 20 | ≤ 20 |  |  | C=CC(=O)N1C[C@H](F)[C@H](Oc2nc(Nc3ncc(C)s3)cc3c2ccn3CCC)C1 [Example 159, 1-((3S,4R)-3-fluoro-4-((6-((5-methylthiazol-2-yl)amino)-1-propyl-1H-pyrrolo[3,2-c]pyridin-4-yl)oxy)pyrrolidin-1-yl)prop-2-en-1-one]
